# Test system: MV-4-11 cells
# Assay: Gene expression microarray analysis (Affymetrix PrimeView) and GSEA
# Format: cell-based, human
# Set-up: RFU PODN (11730768_x_at) / Fold change /veh PODN (11730768_x_at) / RFU LINC00158 (11744669_a_at) / Fold change /veh LINC00158 (11744669_a_at) / RFU DUSP10 (11751237_a_at) / Fold change /veh DUSP10 (11751237_a_at) / RFU ID3 (11757404_x_at) / Fold change /veh ID3 (11757404_x_at) / RFU PLEKHG5 (11737974_s_at) / Fold change /veh PLEKHG5 (11737974_s_at) / RFU LRRC4B (11730491_at) / Fold change /veh LRRC4B (11730491_at) / RFU GIMAP4 (11747438_a_at) / Fold change /veh GIMAP4 (11747438_a_at) / RFU KRT8 (11758183_x_at) / Fold change /veh KRT8 (11758183_x_at) / RFU CNN1 (11734310_a_at) / Fold change /veh CNN1 (11734310_a_at) / RFU VPS37D (11726825_at) / Fold change /veh VPS37D (11726825_at) / RFU C10orf10 (11716522_x_at) / Fold change /veh C10orf10 (11716522_x_at) / RFU KIR2DL2 /// KIR2DL4 /// KIR2DL5A /// KIR2DL5B /// KIR2DS1 /// KIR2DS2 /// KIR2DS3 /// KIR2DS4 /// KIR3DL3 /// KIR3DL3 /// KIR3DS1 (11738374_at) / Fold change /veh KIR2DL2 /// KIR2DL4 /// KIR2DL5A /// KIR2DL5B /// KIR2DS1 /// KIR2DS2 /// KIR2DS3 /// KIR2DS4 /// KIR3DL3 /// KIR3DL3 /// KIR3DS1 (11738374_at) / RFU C1QL1 (11718748_at) / Fold change /veh C1QL1 (11718748_at) / RFU TMPRSS4 (11747572_a_at) / Fold change /veh TMPRSS4 (11747572_a_at) / RFU HAMP (11756126_x_at) / Fold change /veh HAMP (11756126_x_at) / RFU RNFT2 (11725882_a_at) / Fold change /veh RNFT2 (11725882_a_at) / RFU NR4A2 (11747474_a_at) / Fold change /veh NR4A2 (11747474_a_at) / RFU ABCC12 (11746883_a_at) / Fold change /veh ABCC12 (11746883_a_at) / RFU TMEM136 (11760407_x_at) / Fold change /veh TMEM136 (11760407_x_at) / RFU CLDN22 /// WWC2 (11732394_at) / Fold change /veh CLDN22 /// WWC2 (11732394_at) / RFU HLA-DPB1 (11760878_x_at) / Fold change /veh HLA-DPB1 (11760878_x_at) / RFU SPINT1 (11716480_a_at) / Fold change /veh SPINT1 (11716480_a_at) / RFU GAP43 (11754022_s_at) / Fold change /veh GAP43 (11754022_s_at) / RFU A4GNT (11735810_at) / Fold change /veh A4GNT (11735810_at) / RFU PRB3 (11715151_x_at) / Fold change /veh PRB3 (11715151_x_at) / RFU TUBB4B (11761932_at) / Fold change /veh TUBB4B (11761932_at) / RFU CAPN14 (11732068_a_at) / Fold change /veh CAPN14 (11732068_a_at) / RFU TMCC2 (11721928_a_at) / Fold change /veh TMCC2 (11721928_a_at) / RFU IRGQ (11745062_a_at) / Fold change /veh IRGQ (11745062_a_at) / RFU FAM174B (11720279_a_at) / Fold change /veh FAM174B (11720279_a_at) / RFU TMPRSS4 (11748680_a_at) / Fold change /veh TMPRSS4 (11748680_a_at) / RFU FAM212B (11763350_a_at) / Fold change /veh FAM212B (11763350_a_at) / RFU PLEKHG5 (11743358_a_at) / Fold change /veh PLEKHG5 (11743358_a_at) / RFU ZSCAN30 (11745921_a_at) / Fold change /veh ZSCAN30 (11745921_a_at) / RFU CMKLR1 (11741424_a_at) / Fold change /veh CMKLR1 (11741424_a_at) / RFU LOC101060620 /// MAPK8IP1 (11723275_at) / Fold change /veh LOC101060620 /// MAPK8IP1 (11723275_at) / RFU SPTSSB (11747773_x_at) / Fold change /veh SPTSSB (11747773_x_at) / RFU PRSS12 (11739890_at) / Fold change /veh PRSS12 (11739890_at) / RFU BIN1 (11741810_x_at) / Fold change /veh BIN1 (11741810_x_at) / RFU WNT11 (11732464_a_at) / Fold change /veh WNT11 (11732464_a_at) / RFU C10orf10 (11716521_a_at) / Fold change /veh C10orf10 (11716521_a_at) / RFU C5orf56 (11738089_at) / Fold change /veh C5orf56 (11738089_at) / RFU CYB561 (11721691_x_at) / Fold change /veh CYB561 (11721691_x_at) / RFU ANKRD19P (11752326_a_at) / Fold change /veh ANKRD19P (11752326_a_at) / RFU OR2T12 /// OR2T33 /// OR2T8 (11738714_s_at) / Fold change /veh OR2T12 /// OR2T33 /// OR2T8 (11738714_s_at) / RFU VCAN (11748164_a_at) / Fold change /veh VCAN (11748164_a_at) / RFU JSRP1 (11732532_at) / Fold change /veh JSRP1 (11732532_at) / RFU KRTAP10-11 (11738290_x_at) / Fold change /veh KRTAP10-11 (11738290_x_at) / RFU MYO3A (11730013_a_at) / Fold change /veh MYO3A (11730013_a_at) / RFU EBF3 (11725865_a_at) / Fold change /veh EBF3 (11725865_a_at) / RFU CAMK2N1 (11719241_x_at) / Fold change /veh CAMK2N1 (11719241_x_at) / RFU C5orf56 (11738088_a_at) / Fold change /veh C5orf56 (11738088_a_at) / RFU OLFML3 (11715873_a_at) / Fold change /veh OLFML3 (11715873_a_at) / RFU LOC100653217 /// NTM (11731650_a_at) / Fold change /veh LOC100653217 /// NTM (11731650_a_at) / RFU MAPK11 (11762145_a_at) / Fold change /veh MAPK11 (11762145_a_at) / RFU FIZ1 (11724087_x_at) / Fold change /veh FIZ1 (11724087_x_at) / RFU OASL (11726364_x_at) / Fold change /veh OASL (11726364_x_at) / RFU SOX15 (11748057_x_at) / Fold change /veh SOX15 (11748057_x_at) / RFU CD79A (11719716_a_at) / Fold change /veh CD79A (11719716_a_at) / RFU HIST1H1D (11736915_at) / Fold change /veh HIST1H1D (11736915_at) / RFU CASKIN2 (11723855_a_at) / Fold change /veh CASKIN2 (11723855_a_at) / RFU LOC730098 (11760151_x_at) / Fold change /veh LOC730098 (11760151_x_at) / RFU OR4N2 (11742367_at) / Fold change /veh OR4N2 (11742367_at) / RFU PRRT2 (11749266_a_at) / Fold change /veh PRRT2 (11749266_a_at) / RFU SNX32 (11753110_a_at) / Fold change /veh SNX32 (11753110_a_at) / RFU CDHR5 (11726645_a_at) / Fold change /veh CDHR5 (11726645_a_at) / RFU RCAN1 (11760418_a_at) / Fold change /veh RCAN1 (11760418_a_at) / RFU FAM167A (11723789_a_at) / Fold change /veh FAM167A (11723789_a_at) / RFU FAM26E (11764081_at) / Fold change /veh FAM26E (11764081_at) / RFU ISYNA1 (11749810_s_at) / Fold change /veh ISYNA1 (11749810_s_at) / RFU ACY1 (11761880_at) / Fold change /veh ACY1 (11761880_at) / RFU 11764098_at / Fold change /veh 11764098_at / RFU SAMD14 (11745864_x_at) / Fold change /veh SAMD14 (11745864_x_at) / RFU NPB (11741838_a_at) / Fold change /veh NPB (11741838_a_at) / RFU TMPRSS6 (11731388_a_at) / Fold change /veh TMPRSS6 (11731388_a_at) / RFU KRTAP10-2 (11738614_at) / Fold change /veh KRTAP10-2 (11738614_at) / RFU ARHGAP8 /// PRR5-ARHGAP8 (11727945_x_at) / Fold change /veh ARHGAP8 /// PRR5-ARHGAP8 (11727945_x_at) / RFU KRTAP5-7 /// NADSYN1 (11734609_at) / Fold change /veh KRTAP5-7 /// NADSYN1 (11734609_at) / RFU RASL12 (11751679_a_at) / Fold change /veh RASL12 (11751679_a_at) / RFU CDKN2B (11736163_a_at) / Fold change /veh CDKN2B (11736163_a_at) / RFU PRF1 (11729649_at) / Fold change /veh PRF1 (11729649_at) / RFU, ZNF638 /// ZNF638-IT1 / Fold change vs veh, ZNF638 /// ZNF638-IT1 / RFU, PANK3 / Fold change vs veh, PANK3 / RFU, SH3YL1 / Fold change vs veh, SH3YL1 / RFU, ZEB2 / Fold change vs veh, ZEB2 / RFU, NRIP1 / Fold change vs veh, NRIP1 / RFU, PTTG1IP / Fold change vs veh, PTTG1IP / RFU, CAPN2 / Fold change vs veh, CAPN2 / RFU, MED14 / Fold change vs veh, MED14 / RFU, SNORA58 / Fold change vs veh, SNORA58 / RFU, C1orf63 / Fold change vs veh, C1orf63 / RFU, LRRFIP1 / Fold change vs veh, LRRFIP1 / RFU, NDUFAF7 / Fold change vs veh, NDUFAF7 / RFU, SLC12A2 / Fold change vs veh, SLC12A2 / RFU, IBTK / Fold change vs veh, IBTK / RFU, ESF1 / Fold change vs veh, ESF1 / Fold change vs veh, TMEM50B / RFU, TAOK1 / Fold change vs veh, TAOK1 / RFU, ACBD3 / Fold change vs veh, ACBD3 / RFU, TMA16 / Fold change vs veh, TMA16 / RFU, RWDD3 / Fold change vs veh, RWDD3 / RFU, BCAT1 / Fold change vs veh, BCAT1 / RFU, EDEM3 / Fold change vs veh, EDEM3 / RFU, TMEM33 / Fold change vs veh, TMEM33 / RFU, WDR75 / Fold change vs veh, WDR75 / RFU, AHCTF1 / Fold change vs veh, AHCTF1 / RFU, TFRC / Fold change vs veh, TFRC / RFU, ZDHHC17 / Fold change vs veh, ZDHHC17 / RFU, NOM1 / Fold change vs veh, NOM1 / RFU, ARL8B / Fold change vs veh, ARL8B / RFU, ZBTB11 / Fold change vs veh, ZBTB11 / RFU, TAMM41 / Fold change vs veh, TAMM41 / RFU, KIAA1704 /// LOC100996395 / Fold change vs veh, KIAA1704 /// LOC100996395 / RFU, ING1 / Fold change vs veh, ING1 / RFU, TRMT61B / Fold change vs veh, TRMT61B / RFU, FUBP3 / Fold change vs veh, FUBP3 / RFU, TP53 / Fold change vs veh, TP53 / RFU, TNKS2 / Fold change vs veh, TNKS2 / RFU, ZFP14 / Fold change vs veh, ZFP14 / RFU, ACTR2 / Fold change vs veh, ACTR2 / RFU, PPP3R1 / Fold change vs veh, PPP3R1 / RFU, PIK3R1 / Fold change vs veh, PIK3R1 / RFU, HNRNPA1 / Fold change vs veh, HNRNPA1 / RFU, RNF170 / Fold change vs veh, RNF170 / RFU, ZNF28 / Fold change vs veh, ZNF28 / RFU, RNGTT / Fold change vs veh, RNGTT / RFU, OGT / Fold change vs veh, OGT / RFU, BRD1 / Fold change vs veh, BRD1 / RFU, MARS / Fold change vs veh, MARS / RFU, ZNF655 / Fold change vs veh, ZNF655 / RFU, FAHD1 / Fold change vs veh, FAHD1 / RFU, BDP1 / Fold change vs veh, BDP1 / RFU, LRRCC1 / Fold change vs veh, LRRCC1 / RFU, ARID1A / Fold change vs veh, ARID1A / RFU, ZNF146 / Fold change vs veh, ZNF146 / RFU, ZNF330 / Fold change vs veh, ZNF330 / RFU, GPN3 / Fold change vs veh, GPN3 / RFU, C9orf123 / Fold change vs veh, C9orf123 / RFU, N4BP2L2 / Fold change vs veh, N4BP2L2 / RFU, ARFIP1 / Fold change vs veh, ARFIP1 / RFU, FAM179B / Fold change vs veh, FAM179B / RFU, BCL10 / Fold change vs veh, BCL10 / RFU, UHRF1BP1L / Fold change vs veh, UHRF1BP1L / RFU, BET1 / Fold change vs veh, BET1 / RFU, CNOT2 / Fold change vs veh, CNOT2 / RFU, ZNF268 / Fold change vs veh, ZNF268 / Fold change vs veh, ZNF507 / RFU, DGCR2 / Fold change vs veh, DGCR2 / RFU, WDSUB1 / Fold change vs veh, WDSUB1 / Fold change vs veh, HSP90B1 /// MIR3652 / RFU, ADSS / Fold change vs veh, ADSS / RFU, GK / Fold change vs veh, GK / RFU, ZNF148 / Fold change vs veh, ZNF148 / RFU, TAF9 / Fold change vs veh, TAF9 / RFU, SLC1A5 / Fold change vs veh, SLC1A5 / RFU, SLMO2 / Fold change vs veh, SLMO2 / RFU, ABCC4 / Fold change vs veh, ABCC4 / RFU, LOC101060439 /// RAP1B / Fold change vs veh, LOC101060439 /// RAP1B / RFU, RFX7 / Fold change vs veh, RFX7 / RFU, GTPBP10 / Fold change vs veh, GTPBP10 / RFU, CNEP1R1 / Fold change vs veh, CNEP1R1 / RFU, BIVM-ERCC5 /// ERCC5 / Fold change vs veh, BIVM-ERCC5 /// ERCC5 / RFU, ILF3 / Fold change vs veh, ILF3 / RFU 11762660_at / Fold change /veh 11762660_at / RFU VCAN (11757783_s_at) / Fold change /veh VCAN (11757783_s_at) / RFU DDX43 (11728927_at) / Fold change /veh DDX43 (11728927_at) / RFU KRT8 (11758188_x_at) / Fold change /veh KRT8 (11758188_x_at) / RFU NKD1 (11759106_at) / Fold change /veh NKD1 (11759106_at) / RFU SRD5A1 (11742802_a_at) / Fold change /veh SRD5A1 (11742802_a_at) / RFU TPSAB1 /// TPSB2 (11721975_s_at) / Fold change /veh TPSAB1 /// TPSB2 (11721975_s_at) / RFU GSTM3 (11746129_a_at) / Fold change /veh GSTM3 (11746129_a_at) / RFU IL23R (11737362_x_at) / Fold change /veh IL23R (11737362_x_at) / RFU TMEM51 (11727254_a_at) / Fold change /veh TMEM51 (11727254_a_at) / RFU PIWIL2 (11732686_x_at) / Fold change /veh PIWIL2 (11732686_x_at) / RFU ORM1 (11744905_x_at) / Fold change /veh ORM1 (11744905_x_at) / RFU CCDC152 (11743942_at) / Fold change /veh CCDC152 (11743942_at) / RFU ECM1 (11717891_a_at) / Fold change /veh ECM1 (11717891_a_at) / RFU IL23R (11748794_a_at) / Fold change /veh IL23R (11748794_a_at) / RFU TNFAIP8L3 (11732012_x_at) / Fold change /veh TNFAIP8L3 (11732012_x_at) / RFU MBOAT4 (11741988_at) / Fold change /veh MBOAT4 (11741988_at) / RFU 11764193_at / Fold change /veh 11764193_at / RFU TMEM53 (11763286_at) / Fold change /veh TMEM53 (11763286_at) / RFU MAGEB2 (11727129_at) / Fold change /veh MAGEB2 (11727129_at) / RFU TMEM200A (11744735_a_at) / Fold change /veh TMEM200A (11744735_a_at) / RFU CCDC152 (11751479_a_at) / Fold change /veh CCDC152 (11751479_a_at) / RFU FAM211A (11726209_a_at) / Fold change /veh FAM211A (11726209_a_at) / RFU RGS16 (11746705_a_at) / Fold change /veh RGS16 (11746705_a_at) / RFU VCAN (11755009_s_at) / Fold change /veh VCAN (11755009_s_at) / RFU RHOB (11743442_s_at) / Fold change /veh RHOB (11743442_s_at) / RFU RGS16 (11720943_a_at) / Fold change /veh RGS16 (11720943_a_at) / RFU RGS16 (11720944_at) / Fold change /veh RGS16 (11720944_at) / RFU, VPS4B / Fold change vs veh, VPS4B / RFU, CREB1 / Fold change vs veh, CREB1 / RFU, DNAJC13 / Fold change vs veh, DNAJC13 / RFU, GNAQ / Fold change vs veh, GNAQ / RFU, CDK5R1 / Fold change vs veh, CDK5R1 / RFU, ZRANB3 / Fold change vs veh, ZRANB3 / RFU, CUL4A / Fold change vs veh, CUL4A / RFU, CCNY / Fold change vs veh, CCNY / RFU, UFL1 / Fold change vs veh, UFL1 / RFU, COG3 / Fold change vs veh, COG3 / RFU, DIAPH2 / Fold change vs veh, DIAPH2 / RFU, SKA2 / Fold change vs veh, SKA2 / RFU, AFF3 / Fold change vs veh, AFF3 / RFU, LMF1 / Fold change vs veh, LMF1 / RFU, IPO11 / Fold change vs veh, IPO11 / RFU, DFFB / Fold change vs veh, DFFB / RFU, FOXP1 / Fold change vs veh, FOXP1 / RFU, CARD8 / Fold change vs veh, CARD8 / RFU, STRN3 / Fold change vs veh, STRN3 / RFU, ADK / Fold change vs veh, ADK / RFU, RASSF2 / Fold change vs veh, RASSF2 / RFU, WIPF1 / Fold change vs veh, WIPF1 / RFU, LARP1B / Fold change vs veh, LARP1B / RFU, RASA1 / Fold change vs veh, RASA1 / RFU, RB1 / Fold change vs veh, RB1 / RFU, PPFIA1 / Fold change vs veh, PPFIA1 / RFU, MAT2A / Fold change vs veh, MAT2A / RFU, CCT5 / Fold change vs veh, CCT5 / RFU, WDR92 / Fold change vs veh, WDR92 / RFU, CUX1 / Fold change vs veh, CUX1 / RFU, TTC7A / Fold change vs veh, TTC7A / RFU, TMEM135 / Fold change vs veh, TMEM135 / RFU, DEPTOR / Fold change vs veh, DEPTOR / RFU, CPM / Fold change vs veh, CPM / RFU, DNAJB6 / Fold change vs veh, DNAJB6 / RFU, CACNA2D3 / Fold change vs veh, CACNA2D3 / RFU, DTX4 / Fold change vs veh, DTX4 / RFU, TFCP2 / Fold change vs veh, TFCP2 / RFU, GMCL1 /// GMCL1P1 / Fold change vs veh, GMCL1 /// GMCL1P1 / RFU, AEBP2 / Fold change vs veh, AEBP2 / RFU, SNHG1 /// SNORD22 /// SNORD25 /// SNORD26 /// SNORD27 /// SNORD28 /// SNORD29 /// SNORD31 / Fold change vs veh, SNHG1 /// SNORD22 /// SNORD25 /// SNORD26 /// SNORD27 /// SNORD28 /// SNORD29 /// SNORD31 / Fold change (Aza/veh), C12orf56 (ProbeSet 11735607_a_at) / Fold change (ACY-1035/veh), C12orf56 (ProbeSet 11735607_a_at) / Fold change (Aza/veh), FGFR1OP (ProbeSet 11751329_s_at) / Fold change (ACY-1035/veh), FGFR1OP (ProbeSet 11751329_s_at) / Fold change (Aza/veh), VPS36 (ProbeSet 11739960_a_at) / Fold change (ACY-1035/veh), VPS36 (ProbeSet 11739960_a_at) / RFU SYPL1 (11715823_x_at) / Fold change /veh SYPL1 (11715823_x_at) / RFU IGFBP7 (11715501_s_at) / Fold change /veh IGFBP7 (11715501_s_at) / RFU REEP3 (11722064_at) / Fold change /veh REEP3 (11722064_at) / RFU IGLL1 (11728026_x_at) / Fold change /veh IGLL1 (11728026_x_at): dose or concentration left out as unconfirmed
# Details: MV-4-11 cells, 48 hours
compound,measurement,value
Nc1ccc(-c2cccs2)cc1NC(=O)c1ccc2c(c1)cc(C1CC1)n2CCN1CCOCC1 [ACY-1035],RFU C5orf56 (11738089_at),10.10 RFU

# — publication PMC5218480 (PLoS ONE, 2017)
